In ChEMBL document CHEMBL4651402, “Screening of ~5500 FDA-approved drugs and clinical candidates for anti-SARS-CoV-2 activity” (2021):

Tested on: SARS-CoV-2
Test: microbe, parasite or virus in culture
Settings: Severe acute respiratory syndrome coronavirus 2, Vero C1008, 48 h

Row | SMILES | IC50 | IC50 (read-out: pIC50 (converted))
1 | O=C(CCc1ccc(O)cc1)c1c(O)cc(O)cc1OC1OC(CO)C(O)C(O)C1O (stereo unspecified) | > 20 µM | > 20 µM
2 | CC12CCC3C(CCC4=CC(=O)C=CC43C)C1CCC(=O)O2 (stereo unspecified) | > 20 µM | > 20 µM
3 | CCCCNC(=O)OCC(C)(CCC)COC(N)=O (stereo unspecified) [TYBAMATE] | > 20 µM | > 20 µM
4 | CCCCc1ccc2[nH]c(NC(=O)OC)nc2c1 [PARBENDAZOLE] | > 20 µM | > 20 µM
5 | CC/C(=C(\c1ccccc1)c1ccc(OCCN(C)C)cc1)c1ccccc1 [TAMOXIFEN] | > 20 µM | > 20 µM
6 | C=C(C)[C@@H]1[C@H]2OC(=O)[C@H]1[C@]1(O)C[C@H]3O[C@]34C(=O)O[C@H]2[C@]14C | > 20 µM | > 20 µM
7 | Cc1nc2n(c(=O)c1CCN1CCC(C(=O)c3ccc(F)cc3)CC1)CCS2 [SETOPERONE] | > 20 µM | > 20 µM
8 | CN(C)CCCn1c2c(c3ccccc31)CCCCCC2 [IPRINDOLE] | > 20 µM | > 20 µM
9 | NC(=O)c1[nH]nc([C@@H]2O[C@H](CO)[C@@H](O)[C@H]2O)c1O [PYRAZOFURIN] | > 20 µM | > 20 µM
10 | Cc1c(Cl)cccc1Nc1ncccc1C(=O)O [CLONIXIN] | > 20 µM | > 20 µM
11 | CC/C(=C(/CC)c1ccc(O)cc1)c1ccc(O)cc1 [DIETHYLSTILBESTROL] | > 20 µM | > 20 µM
12 | CCN(CC)CCNC(=O)c1cc(Br)c(N)cc1OC [BROMOPRIDE] | > 20 µM | > 20 µM
13 | Oc1ccc([C@H]2COc3cc(O)ccc3C2)cc1 [AUS-131] | > 20 µM | > 20 µM
14 | CC(N)C12CC3CC(CC(C3)C1)C2 (stereo unspecified) [RIMANTADINE] | > 20 µM | > 20 µM
15 | COP(=O)(OC)OC=C(Cl)Cl [DICHLORVOS] | > 20 µM | > 20 µM
16 | NC(=O)c1cnc2n1CCc1ccccc1C21CCNCC1 [VAPITADINE] | > 20 µM | > 20 µM
17 | C[C@@H](CN1CC(=O)NC(=O)C1)N1CC(=O)NC(=O)C1 [DEXRAZOXANE] | > 20 µM | > 20 µM
18 | Cc1nc2ccccn2c(=O)c1CCN1CCC(C(=O)c2ccc(F)cc2)CC1 [PIRENPERONE] | > 20 µM | > 20 µM
19 | N[C@@H](CC(=O)N1CCn2c(nnc2C(F)(F)F)C1)Cc1cc(F)c(F)cc1F [SITAGLIPTIN] | > 20 µM | > 20 µM
20 | O=C(CO)[C@@H]1CCCN1C(=O)[C@@H]1CCCN1C(=O)NCc1ccccc1 | > 20 µM | > 20 µM
21 | COc1ccc(-c2ccc(Cn3c(CC(C)(C)C(=O)O)c(SC(C)(C)C)c4cc(OCc5ccccn5)ccc43)cc2)cn1 | > 20 µM | > 20 µM
22 | CCCN1CCOC2c3cc(O)ccc3CCC21 (stereo unspecified) | > 20 µM | > 20 µM
23 | Cc1ccc(N(CC2=NCCN2)c2cccc(O)c2)cc1 [PHENTOLAMINE] | > 20 µM | > 20 µM
24 | O=C(/C=C/C=C/c1ccc2c(c1)OCO2)N1CCCCC1 [PIPERINE] | > 20 µM | > 20 µM
25 | CCCc1c2oc(C(=O)O)cc(=O)c2cc2c(=O)cc(C(=O)O)oc12 [PROBICROMIL] | > 20 µM | > 20 µM

Row | SMILES | IC50 | IC50 (read-out: pIC50 (converted))
26 | O=c1c2ccccc2nc2n1CCCC2 | > 20 µM | > 20 µM
27 | CC(C)C[C@H]1C(=O)N2CCC[C@H]2[C@]2(O)O[C@](NC(=O)[C@@H]3C=C4c5cccc6[nH]cc(c56)C[C@H]4N(C)C3)(C(C)C)C(=O)N12 [ERGOCRYPTINE] | > 20 µM | > 20 µM
28 | COc1c2ccoc2cc2oc(C)cc(=O)c12 [VISNAGIN] | > 20 µM | > 20 µM
29 | CCCCCCCCCCCCCCCC(=O)OCC(O)CO (stereo unspecified) [GLYCEROL MONOPALMITATE] | > 20 µM | > 20 µM
30 | CC1CN(C)CC2Cc3c(ccc4ccccc34)OC12O (stereo unspecified) [NARANOL] | > 20 µM | > 20 µM
31 | C[C@@H]1CC(=O)NN=C1c1ccc2c(c1)OCC(=O)N2 | > 20 µM | > 20 µM
32 | CCCCC/C=C\C/C=C\CCCCCCCC(=O)O [LINOLEIC ACID] | > 20 µM | > 20 µM
33 | CC(=O)Oc1cc(C(C)C)c(OCCN(C)C)cc1C [MOXISYLYTE] | > 20 µM | > 20 µM
34 | C[C@@H]1O[C@@H](O[C@H]2C[C@@H](O)[C@]3(CO)[C@H]4[C@H](O)C[C@]5(C)[C@@H](C6=CC(=O)OC6)CC[C@]5(O)[C@@H]4CC[C@]3(O)C2)[C@H](O)[C@H](O)[C@H]1O [OUABAIN] | > 20 µM | > 20 µM
35 | C=C1[C@@H](C)[C@H]2[C@H](Cc3ccccc3)NC(=O)[C@]23OC(=O)/C=C\[C@H](O)CCC[C@@H](C)C/C=C\[C@H]3[C@@H]1O | > 20 µM | > 20 µM
36 | Nc1c2c(nc3ccccc13)CCCC2 [TACRINE] | > 20 µM | > 20 µM
37 | CCN(CC)CCNC(=O)c1cc(S(C)(=O)=O)ccc1OC [TIAPRIDE] | > 20 µM | > 20 µM
38 | CCN(CC)C(=O)c1cccc(C)c1 [DIETHYLTOLUAMIDE] | > 20 µM | > 20 µM
39 | C=C[C@](C)(O)CC[C@H]1C(=C)C[C@H](O)[C@H]2C(C)(C)CCC[C@]12C | > 20 µM | > 20 µM
40 | C[C@]12CCC(=O)C[C@H]1CC[C@@H]1[C@@H]2CC[C@]2(C)[C@@H](C(=O)COC(=O)CCC(=O)O)CC[C@@H]12 [HYDROXYDIONE SUCCINIC ACID] | > 20 µM | > 20 µM
41 | Cc1nc(C)c(Cl)c(O)c1Cl [CLOPIDOL] | > 20 µM | > 20 µM
42 | CN1C2CCC1CC(OC(c1ccccc1)c1ccccc1)C2 (stereo unspecified) | > 20 µM | > 20 µM
43 | CCOC(C(=O)N(C)CCN(C)CCc1ccccc1)(c1ccccc1)c1ccccc1 [CARBIPHENE] | > 20 µM | > 20 µM
44 | CCC1(c2ccc(N)cc2)CCC(=O)NC1=O (stereo unspecified) [AMINOGLUTETHIMIDE] | > 20 µM | > 20 µM
45 | NC(Cc1c[nH]c2ccc(O)cc12)C(=O)O (stereo unspecified) | > 20 µM | > 20 µM
46 | C[C@]1(C(=O)N(CCCC(=O)O)Cc2cccc(Cl)c2)CCN1C(=O)c1csc2ccccc12 [GLPG-0974] | > 20 µM | > 20 µM
47 | Nc1nc(=O)n([C@H]2C[C@H](O)[C@@H](CO)O2)cc1F | > 20 µM | > 20 µM
48 | COc1ccc(CCN(C)CCCC2(c3ccc(OC)c(OC)c3)S(=O)(=O)CCCS2(=O)=O)cc1OC | > 20 µM | > 20 µM
49 | CC12CCC(C(=O)N(CCCCN3CCN(c4ccccn4)CC3)C1=O)C2(C)C (stereo unspecified) | > 20 µM | > 20 µM
50 | CN1CCCCC1CCN1c2ccccc2Sc2ccc([S+](C)[O-])cc21 (stereo unspecified) [MESORIDAZINE] | > 20 µM | > 20 µM

Row | SMILES | IC50 | IC50 (read-out: pIC50 (converted))
51 | CN1CCC2=C[C@H](O)[C@H]3OC(=O)c4cc5c(cc4[C@H]3[C@@H]21)OCO5 | > 20 µM | > 20 µM
52 | CCCOC(=O)Cc1ccc(OCC(=O)N(CC)CC)c(OC)c1 [PROPANIDID] | > 20 µM | > 20 µM
53 | NS(=O)(=O)c1cc2c(cc1C(F)(F)F)NCNS2(=O)=O [HYDROFLUMETHIAZIDE] | > 20 µM | > 20 µM
54 | O=S(=O)(O)NC1CCCCC1 [CYCLAMIC ACID] | > 20 µM | > 20 µM
55 | NS(=O)(=O)c1cc2c(cc1Cl)NC(C(Cl)Cl)NS2(=O)=O (stereo unspecified) [TRICHLORMETHIAZIDE] | > 20 µM | > 20 µM
56 | COc1ccc2c(c1)C(=O)N(CCc1ccc(S(=O)(=O)NC(=O)NC3CCCCC3)cc1)C(=O)C2(C)C [GLIQUIDONE] | > 20 µM | > 20 µM
57 | C[N+]1(C)[C@@H]2C[C@@H](OC(=O)[C@H](CO)c3ccccc3)C[C@H]1[C@@H]1O[C@@H]12 [METHSCOPOLAMINE] | > 20 µM | > 20 µM
58 | OCC(O)Cc1ccc2c(c1)OCO2 (stereo unspecified) [SAFROLGLYCOL] | > 20 µM | > 20 µM
59 | COCc1cccc(C[C@H](O)/C=C/[C@H]2[C@H](O)CC(=O)[C@@H]2CCSCCCC(=O)OC)c1 [RIVENPROST] | > 20 µM | > 20 µM
60 | Cc1cc(C(=O)Nc2nc3cccc(Cl)c3n2[C@@H]2CCCCN(C(=O)/C=C/CN(C)C)C2)ccn1 [NAZARTINIB] | > 20 µM | > 20 µM
61 | NC[C@H]1CC[C@H](C(=O)O)CC1 [TRANEXAMIC ACID] | > 20 µM | > 20 µM
62 | Cc1ccc(-n2nc(C(C)(C)C)cc2NC(=O)Nc2ccc(OCCN3CCOCC3)c3ccccc23)cc1 [DORAMAPIMOD] | > 20 µM | > 20 µM
63 | O=c1[nH]c(=O)n([C@@H]2O[C@H](CO)[C@@H](O)[C@@H]2F)cc1I [FIALURIDINE] | > 20 µM | > 20 µM
64 | C[C@@H]1C(=O)O[C@H]2[C@H](O)[C@]34[C@@H]5OC(=O)[C@]3(O[C@@H]3OC(=O)[C@H](O)C34C(C(C)(C)C)C5O)[C@@]12O (stereo partly specified) | > 20 µM | > 20 µM
65 | CCCOCCn1c(=O)c(N2CCN(CCO)CC2)nc2cnc(-c3ccc(OC)nc3)cc21 [PF-03049423] | > 20 µM | > 20 µM
66 | CNC(=N)NCCC[C@H](N)C(=O)O [TILARGININE] | > 20 µM | > 20 µM
67 | CCCCOC(=O)c1ccc(N)cc1 [BUTAMBEN] | > 20 µM | > 20 µM
68 | CCN1C(=O)NC(c2ccccc2)C1=O (stereo unspecified) [ETHOTOIN] | > 20 µM | > 20 µM
69 | CCOC(=O)C1=C(C)NC(C)=C(C(=O)OC)C1c1cccc(Cl)c1Cl (stereo unspecified) [FELODIPINE] | > 20 µM | > 20 µM
70 | CN1C(=O)N(C)C2C1N(C)C(=O)N2C (stereo unspecified) [MEBICAR] | > 20 µM | > 20 µM
71 | C=CC1=C(C(=O)O)N2C(=O)[C@@H](NC(=O)/C(=N\OCC(=O)O)c3csc(N)n3)[C@H]2SC1 [CEFIXIME] | > 20 µM | > 20 µM
72 | Oc1ccc(Cl)c2c1CCC2 [CHLORINDANOL] | > 20 µM | > 20 µM
73 | Nc1ccc(S(=O)(=O)Nc2ncccn2)cc1 [SULFADIAZINE] | > 20 µM | > 20 µM
